Test results reported in the supplement of paper PMC10307832.

Assays:
Test in all cases: relative viability (nuclei count vs DMSO), 5 days (fraction); higher = more cells survive
Motesanib + Bortezomib = compound: CC1(C)CNc2cc(NC(=O)c3cccnc3NCc3ccncc3)ccc21 [Motesanib] + CC(C)C[C@H](NC(=O)[C@H](Cc1ccccc1)NC(=O)c1cnccn1)B(O)O [Bortezomib] (partner 0.002 µM)
How it was run: (§1)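 One day after seeding in 1536-well plates, lung cancer cell lines were dosed by pin tool. Dosing was either single-drug or a fixed anchor-drug dose plus five library-drug doses (not always all listed) in √10 steps. After 5 days, nuclei were stained in one fix-and-stain step and counted on 4× images, and relative viability is the nuclei count of treated wells over that of vehicle wells, given as the median of duplicate plates.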

Motesanib + Crizotinib = compound: CC1(C)CNc2cc(NC(=O)c3cccnc3NCc3ccncc3)ccc21 [Motesanib] + C[C@@H](Oc1cc(-c2cnn(C3CCNCC3)c2)cnc1N)c1c(Cl)ccc(F)c1Cl [Crizotinib] (partner 1 µM)
How it was run: as §1

[1] = compound: C[C@@]1(C(=O)Nc2ccc(F)nc2)CCCN1c1nc(Nc2cc(C3CC3)n[nH]2)c2cccn2n1 + CC(C)C[C@H](NC(=O)[C@H](Cc1ccccc1)NC(=O)c1cnccn1)B(O)O [Bortezomib] (partner 0.002 µM)
How it was run: as §1

[2] = compound: C[C@@]1(C(=O)Nc2ccc(F)nc2)CCCN1c1nc(Nc2cc(C3CC3)n[nH]2)c2cccn2n1 + NC(=O)Nc1cc(-c2cccc(F)c2)sc1C(=O)N[C@H]1CCCNC1 [AZD7762] (partner 0.2 µM)
How it was run: as §1

| Cell Line | relative viability (Motesanib + Bortezomib; first compound 0.01 µM) | relative viability (Motesanib + Bortezomib; first compound 0.03162 µM) | relative viability (Motesanib + Bortezomib; first compound 0.1 µM) | relative viability (Motesanib + Bortezomib; first compound 0.3162 µM) | relative viability (Motesanib + Bortezomib; first compound 1 µM) | relative viability (Motesanib + Crizotinib; first compound 0.01 µM) | relative viability (Motesanib + Crizotinib; first compound 0.03162 µM) | relative viability (Motesanib + Crizotinib; first compound 0.1 µM) | relative viability (Motesanib + Crizotinib; first compound 0.3162 µM) | relative viability (Motesanib + Crizotinib; first compound 1 µM) | relative viability ([1]; first compound 0.04 µM) | relative viability ([1]; first compound 0.1265 µM) | relative viability ([1]; first compound 0.4 µM) | relative viability ([1]; first compound 1.265 µM) | relative viability ([2]; first compound 0.04 µM) | relative viability ([2]; first compound 0.1265 µM) | relative viability ([2]; first compound 0.4 µM) | relative viability ([2]; first compound 1.265 µM) |
| --- | --- | --- | --- | --- | --- | --- | --- | --- | --- | --- | --- | --- | --- | --- | --- | --- | --- | --- |
| NCI-H1703 | 0.25 | 0.264 | 0.228 | 0.192 | 0.265 | 0.826 | 0.545 | 0.303 | 0.155 | 0.172 | 0.349 | 0.328 | 0.415 | 0.237 | 0.145 | 0.111 | 0.13 | 0.12 |
| NCI-H1792 | 0.931 | 0.737 | 0.976 | 1.04 | 1.03 | 0.931 | 0.92 | 1.01 | 1.05 | 0.968 | 0.868 | 0.825 | 0.651 | 0.506 | 0.446 | 0.277 | 0.332 | 0.323 |
| Calu-6 | 0.896 | 1.04 | 0.926 | 1.05 | 0.889 | 0.794 | 0.744 | 0.78 | 0.758 | 0.783 | 1.01 | 0.957 | 0.929 | 0.359 |  |  |  |  |
| SK-LU-1 | 1.11 | 1.48 | 1.3 | 1.38 | 1.58 | 0.961 | 0.935 | 0.826 | 0.897 | 0.988 | 1.06 | 1.03 | 0.93 | 0.884 |  |  |  |  |
| PC-3 [JPC-3] | 0.921 | 0.802 | 0.879 | 0.922 | 0.968 | 0.997 | 1.03 | 1.02 | 1.01 | 1.01 | 0.831 | 0.819 | 0.788 | 0.874 | 0.7 | 0.689 | 0.551 | 0.415 |
| EMC-BAC-2 | 1.03 | 1.01 | 1.02 | 1.07 | 1.08 | 0.761 | 0.656 | 0.765 | 0.739 | 0.674 | 0.948 | 0.871 | 0.804 | 0.78 | 1.14 | 0.644 | 0.679 | 0.54 |
| LK-2 |  |  |  |  |  | 0.232 | 0.234 | 0.231 | 0.249 | 0.217 |  |  |  |  | 0.179 | 0.203 |  | 0.179 |
| NCI-H2126 | 1.07 | 1.17 | 1.11 | 1.17 | 1.12 | 1.07 | 1 | 0.999 | 1.03 | 1.09 | 1.08 | 0.861 | 0.769 | 0.746 | 0.993 | 0.716 | 0.569 | 0.648 |
| NCI-H3122 | 1.04 | 0.967 | 1.04 | 1.12 | 1.01 | 0.253 | 0.27 | 0.285 | 0.295 | 0.267 | 0.993 | 1.03 | 1.04 | 0.944 | 0.79 | 0.88 | 0.651 | 0.831 |
| NCI-H1975 | 0.378 | 0.406 | 0.326 | 0.391 | 0.369 | 1.05 | 0.848 | 0.93 | 0.889 | 0.983 | 0.344 | 0.34 | 0.299 | 0.308 | 0.64 | 0.98 | 0.498 | 0.532 |
